Results: patent US7544691B2, “Guanidine derivatives” (Actelion Pharmaceuticals, Ltd., priority 2004, dated 2009)

target: T1, NPFF1 receptor (Homo sapiens, UniProt Q9GZQ6); experiment: NPFF receptor binding test (displacement of 125I-Tyr1-NPFF from CHOSP10 cell membranes); conditions: membranes of CHOSP10 cells producing NPFF1 receptor; 0.2 nM 125I-Tyr1-NPFF; 90 minutes at room temperature
T1 construct: expressed in transfected cells; host or cells: Chinese Hamster Ovary cells, CHOSP10 (membranes)
T1 sequence (Q9GZQ6 whole entry): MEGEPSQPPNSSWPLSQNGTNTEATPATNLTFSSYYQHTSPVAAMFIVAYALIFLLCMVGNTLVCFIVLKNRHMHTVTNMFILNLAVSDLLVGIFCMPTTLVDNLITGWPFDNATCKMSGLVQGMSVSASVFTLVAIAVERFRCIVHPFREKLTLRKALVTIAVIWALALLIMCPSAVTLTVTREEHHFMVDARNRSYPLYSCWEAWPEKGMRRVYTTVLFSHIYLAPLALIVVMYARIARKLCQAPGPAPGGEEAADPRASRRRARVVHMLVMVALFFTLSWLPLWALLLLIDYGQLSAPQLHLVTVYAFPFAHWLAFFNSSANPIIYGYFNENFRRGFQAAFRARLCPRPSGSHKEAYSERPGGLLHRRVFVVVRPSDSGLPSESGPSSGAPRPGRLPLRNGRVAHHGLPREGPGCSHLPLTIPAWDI
Protocol: Compounds of Formula I were examined in the following test for their affinity to the NPFF receptors: Hamster cells suitable for neuropeptide FF receptor-binding studies (Chinese Hamster Ovary cells, CHOSP10) which in each case produce the NPFF1 or NPFF2 receptor, were multiplied in standard cell-culture conditions. The cell-culture medium was sucked out and 5 ml of buffer A (5 mM Tris pH=7.4, 1 mM MgCl2) added per 17 cm Petri dish. The cells were scraped off the cell-culture plate and transferred into a 50 ml Falcon vessel. The cells were then centrifuged for 5 minutes at 450 g, resuspended in buffer A once again and mixed for 30 seconds on a Polytron Vortexer. After centrifugation at 30,000 g for 20 minutes the supernatant was discarded and the membrane pellet taken up in 500 μl buffer C (75 mM Tris pH=7.4, 25 mM MgCl2, 250 mM sucrose, 0.1 mM PMSF, 0.1 mM phenanthroline). The membrane-buffer mixture was then divided into aliquots and deep-frozen. The protein content of an aliquot was determined by the Lowry method. The binding test was carried out in a final volume of 250 μl. 100 μl membrane-buffer mixture corresponding to 35 μg protein content was mixed with 95 μl binding buffer (50 mM Tris pH 7.4, 60 mM NaCl, 0.1% protease-free BSA, 0.01% NaN3). After addition of 5 μl of a concentration of test substance per measurement point in each case, 0.2 nM ^125I-Tyr1-NPFF (NEN, NEX381) per measurement point was added in 50 μl. After 90 minutes' incubation at room temperature the samples were sucked out through a GF/C filter (Millipore ([…]60)) and the filter was washed with ice cold binding buffer with 3 times 300 μl (Packard Filtermate). After addition of 55 μl Microscint 40 (Packard 6013641) scintillation fluid the measurement points were quantified in the gamma counter (Packard, Top Count NXT). Non-specific binding was ascertained in the presence of 1 μM unmarked neuropeptide FF. Specific binding is defined as the difference between total and non-specific binding. IC50 values are defined as that concentration of the antagonist which displaces 50% of the ^125I-marked neuropeptide FF. This concentration is ascertained by linear regression analysis after logit/log-transformation of the binding values.

Point of comparison: `Cc1nc(NC(=N)N)nc2c1CC(C)CC2` (racemic) [N-(4,6-dimethyl-5,6,7,8-tetrahydro-quinazolin-2-yl)-guanidine], IC50 48 nM. Against it:
- Cc1nc(NC(=N)N)nc2c1C(C)CCC2 (racemic) [N-(4,5-dimethyl-5,6,7,8-tetrahydro-quinazolin-2-yl)-guanidine] — 6.9-fold lower, 7 nM
- Cc1nc(NC(=N)N)nc2c1CCCCCC2 (racemic) [N-(4-methyl-5,6,7,8,9,10-hexahydro-cyclooctapyrimidin-2-yl)-guanidine] — within 1.5-fold, 60 nM
- Cc1nc(NC(=N)N)nc2c1CCCC2 (racemic) [N-(4-methyl-5,6,7,8-tetrahydro-quinazolin-2-yl)-guanidine] — 12-fold lower, 4 nM
- Cc1nc(NC(=N)N)nc2c1CCCCC2 (racemic) [N-(4-methyl-6,7,8,9-tetrahydro-5H-cycloheptapyrimidin-2-yl)-guanidine] — within 1.5-fold, 54 nM
- Cc1nc(NC(=N)N)nc2c1CC(c1ccccc1)CC2 (racemic) [N-(4-methyl-6-phenyl-5,6,7,8-tetrahydro-quinazolin-2-yl)-guanidine] — 3-fold lower, 16 nM
- CCCC1CCc2nc(NC(=N)N)nc(C)c2C1 (racemic) [N-(4-methyl-6-propyl-5,6,7,8-tetrahydro-quinazolin-2-yl)-guanidine] — 48-fold lower, 1 nM
- Cc1nc(NC(=N)N)nc2c1CCCC2c1ccccc1 (racemic) [N-(4-methyl-8-phenyl-5,6,7,8-tetrahydro-quinazolin-2-yl)-guanidine] — 3-fold lower, 16 nM
- Cc1nc(NC(=N)N)nc2c1CC(C(C)C)CC2 (racemic) [N-(6-isopropyl-4-methyl-5,6,7,8-tetrahydro-quinazolin-2-yl)-guanidine] — 24-fold lower, 2 nM
- Cc1nc(NC(=N)N)nc2c1CC(C(C)(C)C)CC2 (racemic) [N-(6-tert-butyl-4-methyl-5,6,7,8-tetrahydro-quinazolin-2-yl)-guanidine] — 6-fold lower, 8 nM
- CCC(C)C1CCCc2c(C)nc(NC(=N)N)nc21 (racemic) [N-(8-sec-butyl-4-methyl-5,6,7,8-tetrahydro-quinazolin-2-yl)-guanidine] — 1.5-fold higher, 73 nM
- Cc1nc(NC(=N)N)nc2c1CCCC2C(C)(C)C (racemic) [N-(8-tert-butyl-4-methyl-5,6,7,8-tetrahydro-quinazolin-2-yl)-guanidine] — within 1.5-fold, 39 nM
- CCC(C)(C)C1CCc2nc(NC(=N)N)nc(C)c2C1 (racemic) [N-[6-(1,1-dimethyl-propyl)-4-methyl-5,6,7,8-tetrahydro-quinazolin-2-yl]-guanidine] — 2.5-fold lower, 19 nM
